Counter-ions that a name gives are not always drawn. Where a SMILES comes first, the peptide text is derived from it.
Experiments:
Factor Xa [1] = target: T1, Factor Xa (Bos taurus, UniProt P00743); assay: Substrate specificity: enzyme reaction with factor Xa, colorimetric; format: biochemical, Bovine; conditions: for absorbance (O.D.) measured, FXa: So = 0.4 mmol, 37° C., 5 minutes, pH 8.3
T1 construct: purchased Sigma Inc. Lot 73F-9450
Procedure: (§1) Specificity of each of the new substrates synthesized in Examples 1 through 4 was examined by reacting with each enzyme. Details of reagents used are as described below.
(§2) (2) Buffer: concentration of Tris, NaCl and CaCl2 and pH (25° C.) were set as shown below, depending upon enzyme. […]
(§3) Enzyme used and its source, etc. are as follows. […]
(§4) (4) Terminate solution (PNA): 10% acetic acid
(§5) (5) Color forming reagent (CHA): pentacyanoamineferroate
(§6) Buffer, 0.5 ml and 0.1 ml of substrate solution are charged in a silicone-treated hard glass test tube or plastic test tube. The mixture is previously heated for 10 minutes in a thermostat at 37° C. Then, 0.1 ml of enzyme solution is added to the mixture to perform enzyme reaction at 37° C. for 5 minutes. Accurately 5 minutes after, 2.0 ml of the terminate solution is added to stop the enzyme reaction. Then the reaction mixture is allowed to stand at 37° C. for 10 minutes and its absorbance is measured at 405 nm or 700 nm.

Kallikrein = assay: Substrate specificity: enzyme reaction with kallikrein, colorimetric; format: biochemical, Swine; conditions: So = 0.4 mmol, 37° C., 5 minutes, pH 7.8
Procedure: as §1, §2, §3, §4, §5, §6

Trypsin = target: T2, Trypsin (Bos taurus, UniProt P00760); assay: Substrate specificity: enzyme reaction with trypsin, colorimetric; format: biochemical, Bovine; conditions: for absorbance (O.D.) measured, Try: So = 0.4 mmol, 37° C., 5 minutes, pH 8.0
T2 construct: purchased Wersinton (so in the source)
T2 sequence (P00760 24-246): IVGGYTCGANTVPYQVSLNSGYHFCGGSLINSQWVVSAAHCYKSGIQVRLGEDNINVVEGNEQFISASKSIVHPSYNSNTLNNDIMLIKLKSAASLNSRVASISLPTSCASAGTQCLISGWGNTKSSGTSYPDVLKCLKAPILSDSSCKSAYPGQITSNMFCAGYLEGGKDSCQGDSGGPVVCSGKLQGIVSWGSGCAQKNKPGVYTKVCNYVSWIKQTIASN
Procedure: as §1, §2, §3
Trypsin Bovine Wersinton 31M771 10 μg/ml
as §4, §5, §6

Plasmin [2] = target: T3, Plasmin (Homo sapiens, UniProt P00747); assay: Substrate specificity: enzyme reaction with plasmin, colorimetric; format: biochemical; set-up: purchased Green Cross Company Lot PL-35; conditions: for absorbance (O.D.) measured, PL: So = 0.4 mmol, 37° C., 5 minutes, pH 7.8
Procedure: as §1, §2, §3
Target sequence in this assay (P00747 581-810 limits assumed): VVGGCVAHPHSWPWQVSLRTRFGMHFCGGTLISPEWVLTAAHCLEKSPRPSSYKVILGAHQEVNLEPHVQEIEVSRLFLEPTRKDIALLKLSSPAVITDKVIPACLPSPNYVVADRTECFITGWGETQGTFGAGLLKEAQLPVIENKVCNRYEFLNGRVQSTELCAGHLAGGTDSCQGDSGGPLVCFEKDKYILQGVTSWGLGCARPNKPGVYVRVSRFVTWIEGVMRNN
Target sequence in this assay (P00747 97-580 partner limits assumed): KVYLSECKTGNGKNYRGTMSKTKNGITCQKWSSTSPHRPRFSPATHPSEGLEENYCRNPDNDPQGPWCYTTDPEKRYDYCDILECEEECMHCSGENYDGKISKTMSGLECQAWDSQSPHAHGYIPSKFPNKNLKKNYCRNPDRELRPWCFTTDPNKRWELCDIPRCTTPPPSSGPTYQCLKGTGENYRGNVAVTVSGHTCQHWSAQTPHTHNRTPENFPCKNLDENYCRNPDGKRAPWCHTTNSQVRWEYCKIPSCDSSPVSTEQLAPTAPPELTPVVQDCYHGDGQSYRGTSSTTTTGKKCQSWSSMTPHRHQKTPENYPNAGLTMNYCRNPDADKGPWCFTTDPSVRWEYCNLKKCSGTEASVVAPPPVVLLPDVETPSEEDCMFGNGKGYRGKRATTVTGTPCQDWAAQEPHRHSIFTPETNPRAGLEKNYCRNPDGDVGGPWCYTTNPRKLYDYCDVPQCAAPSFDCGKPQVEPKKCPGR
Plasmin Human Green Cross PL-35 0.25 CU/ml
as §4, §5, §6

Thrombin [3] = target: T4, Thrombin (Bos taurus, UniProt P00735); assay: Substrate specificity: enzyme reaction with thrombin, colorimetric; format: biochemical, Bovine; conditions: for absorbance (O.D.) measured, TH: So = 0.4 mmol, 37° C., 5 minutes, pH 8.5
T4 construct: purchased Mochida Pharmaceutical Company Lot 65146
Procedure: as §1, §2, §3, §4, §5, §6

thrombin [4] = target: thrombin (Homo sapiens, UniProt P00734); conditions: it is known; cited from earlier work
Plasmin [5] = target: T3, Plasmin; conditions: it is known; cited from earlier work
Target sequence in this assay (P00747 581-810 limits assumed, species assumed): as the sequence (P00747 581-810 limits assumed) above
Target sequence in this assay (P00747 97-580 partner limits assumed, species assumed): as the sequence (P00747 97-580 partner limits assumed) above

factor Xa [6] = target: factor Xa (Homo sapiens, UniProt P00742); conditions: it is known; cited from earlier work
[7] = 700 nm, pentacyanoamineferroate
[8] = CHR-TRY is made 100, So=0.4 mmol

T1 sequence (P00743 234-492 limits assumed): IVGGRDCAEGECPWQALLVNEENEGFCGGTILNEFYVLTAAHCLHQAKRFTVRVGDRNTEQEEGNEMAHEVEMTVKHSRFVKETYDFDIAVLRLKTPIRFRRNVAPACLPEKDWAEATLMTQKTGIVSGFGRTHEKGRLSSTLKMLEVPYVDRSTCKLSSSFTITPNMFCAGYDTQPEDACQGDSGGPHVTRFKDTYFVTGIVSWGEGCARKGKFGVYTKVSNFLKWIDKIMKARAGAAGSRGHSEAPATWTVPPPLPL
T1 sequence (P00743 41-180 partner limits assumed): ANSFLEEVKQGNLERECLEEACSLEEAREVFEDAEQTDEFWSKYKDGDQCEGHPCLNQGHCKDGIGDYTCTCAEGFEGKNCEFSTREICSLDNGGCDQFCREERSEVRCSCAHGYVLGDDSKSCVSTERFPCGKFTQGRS
Chain of factor Xa (P00742 235-488 limits assumed): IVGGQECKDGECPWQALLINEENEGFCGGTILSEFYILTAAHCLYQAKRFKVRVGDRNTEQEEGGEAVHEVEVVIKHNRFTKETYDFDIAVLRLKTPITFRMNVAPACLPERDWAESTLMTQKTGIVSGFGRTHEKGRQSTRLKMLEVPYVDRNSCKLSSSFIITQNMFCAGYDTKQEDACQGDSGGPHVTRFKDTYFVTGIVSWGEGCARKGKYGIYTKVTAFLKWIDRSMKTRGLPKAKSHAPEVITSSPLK
Chain of factor Xa (P00742 41-179 partner limits assumed): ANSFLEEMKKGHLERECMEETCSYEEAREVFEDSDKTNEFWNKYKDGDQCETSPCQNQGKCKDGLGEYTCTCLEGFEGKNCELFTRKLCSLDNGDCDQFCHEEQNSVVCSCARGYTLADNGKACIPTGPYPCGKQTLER

H--D--PyroGlu--Ala--Arg--CHA.HCl [PS-1290]
absorbance (O.D.) measured, FXa (Factor Xa [1]; [7]): 0.007 O.D. | absorbance (O.D.) measured, KL (Kallikrein; [7]): 0.002 O.D. | absorbance (O.D.) measured, Try (Trypsin; [7]): 0.403 O.D. | absorbance (O.D.) measured, PL (Plasmin [2]; [7]): 0.000 O.D. | absorbance (O.D.) measured, TH (Thrombin [3]; [7]): 0.005 O.D.

C[C@H](NC(=O)[C@@H]1CCC(=O)N1)C(=O)N[C@@H](CCCNC(=N)N)C(=O)Nc1ccc(O)c(C(=O)O)c1 [PS-1245, H-PyroGlu-Ala-Arg-CHA]
absorbance (O.D.) measured, FXa (Factor Xa [1]; [7]): 0.008 O.D. | reactivity with factor Xa relative to CHR-TRY (Factor Xa [1]; CHR-TRY is made 100): 19% | Relative Reactivity of Substrate to Each Enzyme, FXa (Factor Xa [1]; [8]): 9 | absorbance (O.D.) measured, KL (Kallikrein; [7]): 0.005 O.D. | absorbance (O.D.) measured, Try (Trypsin; [7]): 0.676 O.D. | reactivity with trypsin relative to CHR-TRY (Trypsin; CHR-TRY is made 100): 278% | Relative Reactivity of Substrate to Each Enzyme, Try (Trypsin; [8]): 278 | absorbance (O.D.) measured, PL (Plasmin [2]; [7]): 0.005 O.D. | reactivity with plasmin relative to CHR-TRY (Plasmin [2]; CHR-TRY is made 100): 36% | Relative Reactivity of Substrate to Each Enzyme, PL (Plasmin [2]; [8]): 36 | absorbance (O.D.) measured, TH (Thrombin [3]; [7]): 0.006 O.D. | reactivity with thrombin relative to CHR-TRY (Thrombin [3]; CHR-TRY is made 100): 12% | Relative Reactivity of Substrate to Each Enzyme, TH (Thrombin [3]; [8]): 12

N=C(N)NCCC[C@H](NC(=O)CNC(=O)[C@H](N)CCC(=O)O)C(=O)Nc1ccc(O)c(C(=O)O)c1 [PS-1298, H--D--Glu--Gly--Arg--CHA.2HCl]
absorbance (O.D.) measured, FXa (Factor Xa [1]; [7]): 0.004 O.D. | absorbance (O.D.) measured, KL (Kallikrein; [7]): 0.003 O.D. | absorbance (O.D.) measured, Try (Trypsin; [7]): 0.401 O.D. | absorbance (O.D.) measured, PL (Plasmin [2]; [7]): 0.004 O.D. | absorbance (O.D.) measured, TH (Thrombin [3]; [7]): 0.002 O.D.

CC(C)[C@H](NC(=O)[C@@H]1CCC(=O)N1)C(=O)N[C@@H](CCCNC(=N)N)C(=O)Nc1ccc(O)c(C(=O)O)c1 [PS-1293, H--PyroGlu--Val--Arg--CHA.HCl]
absorbance (O.D.) measured, FXa (Factor Xa [1]; [7]): 0.007 O.D. | absorbance (O.D.) measured, KL (Kallikrein; [7]): 0.002 O.D. | absorbance (O.D.) measured, Try (Trypsin; [7]): 0.434 O.D. | absorbance (O.D.) measured, PL (Plasmin [2]; [7]): 0.007 O.D. | absorbance (O.D.) measured, TH (Thrombin [3]; [7]): 0.002 O.D.

CC[C@H](NC(=O)[C@@H]1CCC(=O)N1)C(=O)N[C@@H](CCCNC(=N)N)C(=O)Nc1ccc(O)c(C(=O)O)c1 [PS-1294, H--PyroGlu--But--Arg--CHA.HCl]
absorbance (O.D.) measured, FXa (Factor Xa [1]; [7]): 0.010 O.D. | absorbance (O.D.) measured, KL (Kallikrein; [7]): 0.003 O.D. | absorbance (O.D.) measured, Try (Trypsin; [7]): 0.588 O.D. | absorbance (O.D.) measured, PL (Plasmin [2]; [7]): 0.008 O.D. | absorbance (O.D.) measured, TH (Thrombin [3]; [7]): 0.003 O.D.

CCC[C@H](NC(=O)[C@@H]1CCC(=O)N1)C(=O)N[C@@H](CCCNC(=N)N)C(=O)Nc1ccc(O)c(C(=O)O)c1 [PS-1295, H--PyroGlu--NVal--Arg--CHA.HCl]
absorbance (O.D.) measured, FXa (Factor Xa [1]; [7]): 0.008 O.D. | absorbance (O.D.) measured, KL (Kallikrein; [7]): 0.006 O.D. | absorbance (O.D.) measured, Try (Trypsin; [7]): 0.637 O.D. | absorbance (O.D.) measured, PL (Plasmin [2]; [7]): 0.008 O.D. | absorbance (O.D.) measured, TH (Thrombin [3]; [7]): 0.002 O.D.

CC(C)[C@H](NC(=O)OCc1ccccc1)C(=O)NCC(=O)N[C@@H](CCCNC(=N)N)C(=O)Nc1ccc([N+](=O)[O-])cc1 [CHR-TRY, Benzyloxy-carbonyl-Val-Gly-Arg-p-Nitroanilide, reference compound] (HELM PEPTIDE1{[O=C(OCc1ccccc1)[*:2]].V.G.R.[O=[N+]([O-])c1ccc(N[*:1])cc1]}$$$$V2.0)
reaction with thrombin (thrombin [4]): considerably reacts | reaction with plasmin (Plasmin [5]): considerably reacts | reaction with factor Xa (factor Xa [6]): considerably reacts | absorbance (O.D.) measured, FXa (Factor Xa [1]; 405 nm (PNA substrate)): 0.090 O.D. | absorbance (O.D.) measured, KL (Kallikrein; 405 nm (PNA substrate)): 0.008 O.D. | absorbance (O.D.) measured, Try (Trypsin; 405 nm (PNA substrate)): 0.243 O.D. | absorbance (O.D.) measured, PL (Plasmin [2]; 405 nm (PNA substrate)): 0.014 O.D. | absorbance (O.D.) measured, TH (Thrombin [3]; 405 nm (PNA substrate)): 0.050 O.D.

CCCC[C@H](NC(=O)[C@@H]1CCC(=O)N1)C(=O)N[C@@H](CCCNC(=N)N)C(=O)Nc1ccc(O)c(C(=O)O)c1 [PS-1296, H--PyroGlu--NLeu--Arg--CHA.HCl]
absorbance (O.D.) measured, FXa (Factor Xa [1]; [7]): 0.008 O.D. | absorbance (O.D.) measured, KL (Kallikrein; [7]): 0.006 O.D. | absorbance (O.D.) measured, Try (Trypsin; [7]): 0.656 O.D. | absorbance (O.D.) measured, PL (Plasmin [2]; [7]): 0.010 O.D. | absorbance (O.D.) measured, TH (Thrombin [3]; [7]): 0.002 O.D.

H--D--PyroGlu--Pro--Arg--CHA.HCl [PS-1291]
absorbance (O.D.) measured, FXa (Factor Xa [1]; [7]): 0.007 O.D. | absorbance (O.D.) measured, KL (Kallikrein; [7]): 0.002 O.D. | absorbance (O.D.) measured, Try (Trypsin; [7]): 0.556 O.D. | absorbance (O.D.) measured, PL (Plasmin [2]; [7]): 0.004 O.D. | absorbance (O.D.) measured, TH (Thrombin [3]; [7]): 0.012 O.D.

N=C(N)NCCC[C@H](NC(=O)[C@@H]1CCCN1C(=O)[C@@H]1CCC(=O)N1)C(=O)Nc1ccc(O)c(C(=O)O)c1 [PS-1242, H--PyroGlu--Pro--Arg--CHA]
absorbance (O.D.) measured, FXa (Factor Xa [1]; [7]): 0.008 O.D. | absorbance (O.D.) measured, KL (Kallikrein; [7]): 0.004 O.D. | absorbance (O.D.) measured, Try (Trypsin; [7]): 0.570 O.D. | absorbance (O.D.) measured, PL (Plasmin [2]; [7]): 0.013 O.D. | absorbance (O.D.) measured, TH (Thrombin [3]; [7]): 0.022 O.D.

N=C(N)NCCC[C@H](NC(=O)[C@@H]1CCCCN1C(=O)[C@@H]1CCC(=O)N1)C(=O)Nc1ccc(O)c(C(=O)O)c1 [PS-1292]
absorbance (O.D.) measured, FXa (Factor Xa [1]; [7]): 0.007 O.D. | absorbance (O.D.) measured, KL (Kallikrein; [7]): 0.002 O.D. | absorbance (O.D.) measured, Try (Trypsin; [7]): 0.814 O.D. | absorbance (O.D.) measured, PL (Plasmin [2]; [7]): 0.005 O.D. | absorbance (O.D.) measured, TH (Thrombin [3]; [7]): 0.021 O.D.

Reference: patent US5116941A, “Peptide substrates for determination of enzyme activity” (Nitto Boseki Co., Ltd., priority 1988, dated 1992)
